Data from PubChem BioAssay (NCI).
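Interpolation was linear, between the two tested concentrations surrounding the appropriate level; five concentrations were tested over 48 hours in 96-well plates. The concentration for full growth arrest is given as TGI.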

Tests used:
Experiment in all cases: growth of human tumour cells (NCI), 48 h
NCI-H226 lung = tested on: NCI-H226 lung
HCC-2998 colon = tested on: HCC-2998 colon
U251 CNS = tested on: U251 CNS
ACHN renal = tested on: ACHN renal
SNB-19 CNS = tested on: SNB-19 CNS
IGROV1 ovarian = tested on: IGROV1 ovarian
SK-MEL-28 melanoma = tested on: SK-MEL-28 melanoma
A498 renal = tested on: A498 renal
HOP-62 NSCLC = tested on: HOP-62 NSCLC
LOX IMVI melanoma = tested on: LOX IMVI melanoma
MALME-3M melanoma = tested on: MALME-3M melanoma
OVCAR-3 ovarian = tested on: OVCAR-3 ovarian
RXF 393 renal = tested on: RXF 393 renal
RPMI-8226 leukemia = tested on: RPMI-8226 leukemia
SN12C renal = tested on: SN12C renal
SF-268 CNS = tested on: SF-268 CNS
SF-539 CNS = tested on: SF-539 CNS
NCI/ADR-RES ovarian = tested on: NCI/ADR-RES ovarian
MDA-N = tested on: MDA-N
HS 578T breast = tested on: HS 578T breast

Structure (SMILES)	TGI (NCI-H226 lung)	TGI (HCC-2998 colon)	TGI (U251 CNS)	TGI (ACHN renal)	TGI (SNB-19 CNS)	TGI (IGROV1 ovarian)	TGI (SK-MEL-28 melanoma)	TGI (A498 renal)	TGI (HOP-62 NSCLC)	TGI (LOX IMVI melanoma)	TGI (MALME-3M melanoma)	TGI (OVCAR-3 ovarian)	TGI (RXF 393 renal)	TGI (RPMI-8226 leukemia)	TGI (SN12C renal)	TGI (SF-268 CNS)	TGI (SF-539 CNS)	TGI (NCI/ADR-RES ovarian)	TGI (MDA-N)	TGI (HS 578T breast)
NC(CCCNc1ccc(O)cc1)C(=O)O (centres undefined)	> 100 µM	> 100 µM	> 100 µM	> 57.4 µM	> 100 µM	61.5 µM	> 100 µM	> 73.1 µM	> 100 µM	33.3 µM	> 100 µM	35 µM	63.6 µM	54.8 µM	> 70.6 µM	> 62.6 µM	83.5 µM			
Nc1c(C(=O)c2ccc(Cl)cc2)[nH]c(Nc2ccc(Cl)cc2)c1C(=S)Nc1ccccc1	19.4 µM	7.7 µM	9.73 µM	5.08 µM	21.8 µM	17.3 µM	14.4 µM	28.9 µM	20.5 µM	16.6 µM	36.1 µM	12.9 µM	7.45 µM	56.3 µM	22.5 µM	17.8 µM	18.4 µM	13.3 µM	21.5 µM	
CSC1=NC(=O)CCN1C1OCC(OC(C)=O)C(OC(C)=O)C1OC(C)=O (centres undefined)	> 31.6 µM	> 31.6 µM	> 31.6 µM	> 31.6 µM	> 31.6 µM	23 µM	25.4 µM	25.3 µM	> 31.6 µM		23.2 µM	18.6 µM	23.6 µM	> 31.6 µM	> 31.6 µM	29.3 µM	28.7 µM	> 31.6 µM		22.5 µM
NCc1ccc(O)c(O)c1O	> 66.7 µM	> 81.7 µM	52.6 µM	55.4 µM	> 97.3 µM	> 86.3 µM	> 100 µM	> 100 µM	> 73.9 µM	32 µM	> 100 µM	47 µM	> 81.1 µM	64.8 µM	37.3 µM	61.6 µM	> 62.5 µM			54.9 µM
O=C1CC2(CCN(CC3COc4ccccc4O3)CC2)C(=O)N1N1CCCCCC1 (centres undefined)	> 100 µM		> 100 µM	> 100 µM	> 100 µM	> 100 µM	> 100 µM	> 100 µM	> 100 µM	> 100 µM	> 100 µM	> 100 µM	> 100 µM	> 100 µM	> 100 µM	> 100 µM	> 100 µM	> 100 µM		> 100 µM
SCc1ccc(-c2ccc(CS)cc2)cc1	36.9 µM	30.6 µM	31.1 µM	43.1 µM	36.4 µM	32.5 µM	24.3 µM	> 64.3 µM	14 µM	15 µM	36.1 µM	32.2 µM	32.9 µM	30.6 µM	> 81.2 µM	10.3 µM	33.5 µM	32.3 µM		22.3 µM
CCOC(=O)CCC(NC(=O)C(CCC(=O)OCC)NC(=O)C(Cc1ccc([N+](=O)[O-])cc1)NC(C)=O)C(=O)NNC(=O)OC(C)(C)C (centres undefined)	> 100 µM	> 100 µM	> 100 µM	> 100 µM	> 100 µM	> 100 µM	> 100 µM	> 100 µM	> 100 µM		> 100 µM		32.9 µM	> 100 µM	> 100 µM				> 100 µM	> 100 µM
CC(/C=C/c1ccccc1)=N\N=C(C)\C=C\c1ccccc1	> 100 µM	> 100 µM	> 100 µM	> 100 µM		> 100 µM	> 100 µM	> 100 µM	> 100 µM	> 100 µM	> 100 µM	> 100 µM		> 100 µM	> 100 µM	> 100 µM				
COC(=O)C12OCC34C(CC5C(C)C6=CC(=O)OC6=CC5(C)C3C(O)C1O)OC(=O)C(OC(C)=O)C24 (centres undefined)	53.2 µM	30 µM	57.8 µM	38.9 µM	> 91 µM	65.1 µM	30.1 µM	43.9 µM	53.2 µM	37 µM	21.9 µM	29.4 µM	29 µM	40.5 µM	39.9 µM	40.1 µM	34 µM			
COc1ccc2c(c1)OCC1=C2Oc2ccccc2C1	> 100 µM	54 µM	> 100 µM	> 100 µM		> 100 µM		> 100 µM	> 100 µM	55.9 µM	> 100 µM	> 100 µM		> 100 µM	> 100 µM	> 100 µM	95.7 µM	> 100 µM	71.1 µM	
ClCCN(CC#CCCCC#CCN(CCCl)CCCl)CCCl	37.2 µM	32.9 µM	23.8 µM	15.2 µM	27.6 µM	35.1 µM	38.6 µM	26.4 µM	29.3 µM	20.9 µM	32.5 µM	26.7 µM	33.5 µM	13.4 µM	21.2 µM	33.5 µM	27 µM	58.1 µM		
Cc1ccc([N+]2=NC(c3ccc([N+](=O)[O-])cc3)=NN(c3ccccc3)C2)cc1	> 100 µM	> 100 µM	> 100 µM	> 100 µM	> 100 µM	> 100 µM	> 100 µM	> 100 µM	> 100 µM	> 100 µM	> 100 µM	> 100 µM	> 100 µM	> 100 µM	> 100 µM	> 100 µM				
Clc1ccc(/C=c2\nc(-c3ccccc3)n3c2nc2ccccc23)cc1	> 100 µM		> 100 µM	50.6 µM	> 100 µM	> 100 µM	0.952 µM	> 100 µM	> 100 µM	> 100 µM	> 100 µM	> 100 µM	> 100 µM	> 100 µM	> 100 µM	> 100 µM	52.2 µM	> 100 µM		> 100 µM
O=C(O)COc1cc(-c2ccccc2F)nc2cc3c(cc12)OCO3	> 100 µM	> 100 µM	> 100 µM	> 100 µM		> 100 µM	> 100 µM		> 100 µM	> 100 µM	> 100 µM	> 100 µM	> 100 µM	> 100 µM	> 100 µM	> 100 µM	> 100 µM	> 100 µM	> 100 µM	
Clc1ccc(-c2c3nc(c(-c4ccc(Cl)cc4)c4ccc([nH]4)c(-c4ccc(Cl)cc4)c4nc(c(-c5ccc(Cl)cc5)c5ccc2[nH]5)C=C4)C=C3)cc1		> 100 µM	> 100 µM	> 100 µM	> 100 µM	> 100 µM	> 100 µM		> 100 µM	> 100 µM	> 100 µM	> 100 µM		> 100 µM	> 100 µM	> 100 µM	> 100 µM	> 100 µM		> 100 µM
O=C1OCCC12CN(Cc1ccccc1)N=N2 (centres undefined)		> 100 µM	> 100 µM	> 100 µM	> 100 µM		> 100 µM	> 100 µM	> 100 µM		> 100 µM	> 100 µM	> 100 µM	> 100 µM	> 100 µM	> 100 µM	> 100 µM	> 100 µM	> 100 µM	
CC(SC(=S)N(C)C)C(=O)Nc1nnc(-c2ccc(Cl)cc2)o1 (centres undefined)	> 100 µM	> 100 µM	> 100 µM	> 100 µM	> 100 µM	> 100 µM	> 100 µM	> 100 µM	> 100 µM	33.8 µM	> 100 µM	> 100 µM	> 100 µM	66.6 µM	> 100 µM	> 100 µM	> 100 µM	> 100 µM		> 100 µM
Cn1c(=O)c2c(nc(N3CCOCC3)n2CCCNCC(O)c2ccc(O)c(O)c2)n(C)c1=O (centres undefined)	> 100 µM		> 100 µM	> 100 µM	> 100 µM	> 100 µM	> 100 µM	> 100 µM	> 100 µM	> 100 µM	> 100 µM	> 100 µM	> 100 µM	> 100 µM	> 100 µM	> 100 µM	> 100 µM	> 100 µM		> 100 µM
CC1OC1P(=O)(O)O (centres undefined)		> 100 µM	> 100 µM	> 100 µM	> 100 µM	> 100 µM	> 100 µM	> 100 µM	> 100 µM	> 100 µM		> 100 µM	> 100 µM	> 100 µM	> 100 µM	> 100 µM			> 100 µM	> 100 µM
CSC1=C(C(=O)N(COCC[Si](C)(C)C)c2ccccc2Br)CCC(C(C)(C)C)C1 (centres undefined)	34.4 µM	27 µM	24 µM	51.2 µM	42.9 µM	> 100 µM	> 100 µM	85.9 µM	53.2 µM	29.2 µM	46.4 µM	24.4 µM	23.1 µM	> 100 µM	27.8 µM			> 100 µM		
CN(C)CCn1c2c(c3ccccc31)CCc1ccccc1-2	26 µM	16.7 µM	26.8 µM	29.9 µM	33.5 µM	21.8 µM	29.9 µM		29.1 µM	32.2 µM	30.5 µM	27.7 µM		28.3 µM	28.3 µM	32.3 µM	26.2 µM	29.9 µM		29.7 µM
Nc1cc(N2CCOCC2)nc(=O)n1-c1ccccc1	> 100 µM	> 100 µM	> 100 µM	> 100 µM	> 100 µM	> 100 µM	> 100 µM	> 100 µM	> 100 µM	> 100 µM		> 100 µM		> 100 µM	> 100 µM		> 100 µM	> 100 µM	> 100 µM	
O=C(N/C(=C\NC1=NCCS1)C(=O)N1CSC[C@@H]1C(=O)O)c1ccccc1	> 100 µM	> 100 µM	> 100 µM	> 100 µM	> 100 µM		> 100 µM	> 100 µM	> 100 µM	> 100 µM		> 100 µM	> 100 µM	> 100 µM	> 100 µM	> 100 µM	> 100 µM	> 100 µM	> 100 µM	
CN(C)CCNC(=O)c1ccccc1Nc1c(Cl)cccc1Cl	29.4 µM	23.7 µM	23.9 µM	21 µM	29.9 µM	36.3 µM	28.2 µM		27.2 µM	25.8 µM			10.8 µM	29.1 µM	28.7 µM	31.5 µM	26.7 µM			
CCOc1ccccc1NC(=O)CSc1nnc(Cc2ccccc2)o1	57.5 µM	> 100 µM	41 µM	46.3 µM	48.7 µM	> 100 µM	> 100 µM	> 100 µM	> 100 µM	40 µM	33.8 µM	32.7 µM	55.3 µM	> 100 µM	64.9 µM	64.4 µM	53.5 µM			
CC[C@]1(Cc2ccc(OC)c(OC)c2)C=[N+]([O-])O[C@H](OC2CCCCC2c2ccccc2)[C@@H]1OC(C)=O (some centres undefined)	> 100 µM	> 100 µM	> 100 µM	> 100 µM	> 100 µM	> 100 µM	> 100 µM	> 100 µM	> 100 µM	> 100 µM	> 100 µM	> 100 µM	94.1 µM	69.7 µM	> 100 µM			> 100 µM	> 100 µM	
